Target: T1, non-Cathepsin L-processed, but self-cleaved enzyme (LyLAP) (Homo sapiens, UniProt Q6P4A8)
T1 sequence (Q6P4A8 39-227): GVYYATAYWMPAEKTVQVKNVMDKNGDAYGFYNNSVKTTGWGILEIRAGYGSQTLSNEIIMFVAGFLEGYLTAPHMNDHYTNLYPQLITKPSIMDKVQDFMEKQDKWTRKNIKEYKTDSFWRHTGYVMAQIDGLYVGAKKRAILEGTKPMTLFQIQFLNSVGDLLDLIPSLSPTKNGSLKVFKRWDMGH
T1 sequence (Q6P4A8 228-553): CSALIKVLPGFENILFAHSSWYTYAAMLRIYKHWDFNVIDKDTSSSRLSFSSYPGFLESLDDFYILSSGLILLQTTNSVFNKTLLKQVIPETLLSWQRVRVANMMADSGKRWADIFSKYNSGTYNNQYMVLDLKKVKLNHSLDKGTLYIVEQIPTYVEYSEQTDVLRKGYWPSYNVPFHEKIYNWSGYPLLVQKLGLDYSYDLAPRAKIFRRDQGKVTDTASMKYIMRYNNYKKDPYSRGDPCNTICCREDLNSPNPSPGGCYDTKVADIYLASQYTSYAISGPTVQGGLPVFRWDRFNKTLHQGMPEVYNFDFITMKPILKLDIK
Assay: fluorogenic AMC release
Assay type: biochemical
Details: lysosomal pH buffer pH 4.5, 37°C; without cathepsin L preactivation

Q: With Cc1cc(=O)oc2cc(NC(=O)[C@@H](N)CC(C)C)ccc12 [Leu-AMC, L-Leucine-7-amido-4-methylcoumarin] as the molecule, how does the “fluorogenic AMC release” value read?
A: increased catalysis toward single amino acid substrates and, more substantially, toward tripeptide substrates

— publication PMC12832182 (Science (New York, N.Y.), 2025)
